Assay results: article PMC12422182 (Science Advances, 2025)
Blank lines part the entries; values can stand above or below the compound they belong to.

What was measured:
[1] = biological target: OBP13; test: fluorescence titration, Scatchard analysis; assay type: binding, Locusta migratoria
[2] = biological target: OBP13; test: competitive fluorescence binding assay; parameters: species or system Locusta migratoria
[3] = biological target: Clvs2; test: microscale thermophoresis; assay type: binding, Locusta migratoria

Kd [1]: 13.8 µM
Compound: c1ccc(Nc2cccc3ccccc23)cc1 [1-NPN, N-phenyl-1-naphthylamine]

Ki [2]: 3.46 µM
Compound: C=Cc1ccc(OC)cc1 [4VA, 4-vinylanisole]

Kd [3]: 5.86 ± 0.59 µM
Compound: phosphatidylinositol 4,5-bisphosphate [PI(4,5)P2]
